Columns and labels:
Type in all cases: in vivo
[1] = system: Indian Mustard; assay: Pre-emergence herbicide test; conditions: Brassica juncea, read-out: % plant inhibition (Inmu); for inhibition at 11210 g/ha: 11.21 kg/ha
In short: (§1)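 In this greenhouse test, seeds on compacted topsoil receive the active ingredient in an organic solvent or aqueous carrier, are covered with untreated soil and watered from below; percent inhibition is scored approximately 11 days later.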

[2] = system: Barnyardgrass; assay: Pre-emergence herbicide test; conditions: Echinochloa crus-galli, read-out: % plant inhibition (Bygr); for inhibition at 11210 g/ha: 11.21 kg/ha
In short: as §1

[3] = system: Velvetleaf; assay: Pre-emergence herbicide test; conditions: Abutilon theophrasti, read-out: % plant inhibition (Vele); for inhibition at 11210 g/ha: 11.21 kg/ha
In short: as §1

[4] = system: Seedling johnsongrass; assay: Pre-emergence herbicide test; conditions: Sorghum halepense, read-out: % plant inhibition (Sejg); for inhibition at 11210 g/ha: 11.21 kg/ha
In short: as §1

[5] = system: Annual bluegrass; assay: Pre-emergence herbicide test; conditions: read-out: % plant inhibition (Anbg); for inhibition at 11210 g/ha: 11.21 kg/ha
In short: as §1

[6] = system: Yellow nutsedge; assay: Pre-emergence herbicide test; conditions: Cyperus, read-out: % plant inhibition (Yens); for inhibition at 11210 g/ha: 11.21 kg/ha
In short: as §1

[7] = system: Wild buckwheat; assay: Pre-emergence herbicide test; conditions: Fallopia convolvulus, read-out: % plant inhibition (Wibw); for inhibition at 11210 g/ha: 11.21 kg/ha
In short: as §1

[8] = system: Downy Brome; assay: Pre-emergence herbicide test; conditions: Bromus tectorum, read-out: % plant inhibition (Dobr); for inhibition at 11210 g/ha: 11.21 kg/ha
In short: as §1

[9] = system: Morningglory; assay: Pre-emergence herbicide test; conditions: Ipomoea, read-out: % plant inhibition (Mogl); for inhibition at 11210 g/ha: 11.21 kg/ha
In short: as §1

[10] = system: Cocklebur; assay: Pre-emergence herbicide test; conditions: Xanthium strumarium, read-out: % plant inhibition (Cobu); for inhibition at 11210 g/ha: 11.21 kg/ha
In short: as §1

[11] = system: Indian Mustard; assay: Post-emergence herbicide test; conditions: Brassica juncea, read-out: % plant inhibition (Inmu); for inhibition at 11210 g/ha: 11.21 kg/ha
In short: (§2)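 Emerged annual and perennial plants (2–3 weeks) are sprayed with test compound in a carrier with ~0.4% emulsifier, 1870 L/Ha total volume, atomizer pressure 10 psig. Effects are expressed as % inhibition versus control at approximately 10–14 days and occasionally 24–28 days.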

[12] = system: Barnyardgrass; assay: Post-emergence herbicide test; conditions: Echinochloa crus-galli, read-out: % plant inhibition (Bygr); for inhibition at 11210 g/ha: 11.21 kg/ha
In short: as §2

[13] = system: Velvetleaf; assay: Post-emergence herbicide test; conditions: Abutilon theophrasti, read-out: % plant inhibition (Vele); for inhibition at 11210 g/ha: 11.21 kg/ha
In short: as §2

[14] = system: Seedling johnsongrass; assay: Post-emergence herbicide test; conditions: Sorghum halepense, read-out: % plant inhibition (Sejg); for inhibition at 11210 g/ha: 11.21 kg/ha
In short: as §2

[15] = system: Annual bluegrass; assay: Post-emergence herbicide test; conditions: read-out: % plant inhibition (Anbg); for inhibition at 11210 g/ha: 11.21 kg/ha
In short: as §2

[16] = system: Yellow nutsedge; assay: Post-emergence herbicide test; conditions: Cyperus, read-out: % plant inhibition (Yens); for inhibition at 11210 g/ha: 11.21 kg/ha
In short: as §2

[17] = system: Wild buckwheat; assay: Post-emergence herbicide test; conditions: Fallopia convolvulus, read-out: % plant inhibition (Wibw); for inhibition at 11210 g/ha: 11.21 kg/ha
In short: as §2

[18] = system: Downy Brome; assay: Post-emergence herbicide test; conditions: Bromus tectorum, read-out: % plant inhibition (Dobr); for inhibition at 11210 g/ha: 11.21 kg/ha
In short: as §2

[19] = system: Morningglory; assay: Post-emergence herbicide test; conditions: Ipomoea, read-out: % plant inhibition (Mogl); for inhibition at 11210 g/ha: 11.21 kg/ha
In short: as §2

[20] = system: Cocklebur; assay: Post-emergence herbicide test; conditions: Xanthium strumarium, read-out: % plant inhibition (Cobu); for inhibition at 11210 g/ha: 11.21 kg/ha
In short: as §2

Row | SMILES | inhibition at 11210 g/ha [1] [%] | inhibition at 11210 g/ha [2] [%] | inhibition at 11210 g/ha [3] [%] | inhibition at 11210 g/ha [4] [%] | inhibition at 11210 g/ha [5] [%] | inhibition at 11210 g/ha [6] [%] | inhibition at 11210 g/ha [7] [%] | inhibition at 11210 g/ha [8] [%] | inhibition at 11210 g/ha [9] [%] | inhibition at 11210 g/ha [10] [%] | inhibition at 11210 g/ha [11] [%] | inhibition at 11210 g/ha [12] [%] | inhibition at 11210 g/ha [13] [%] | inhibition at 11210 g/ha [14] [%] | inhibition at 11210 g/ha [15] [%] | inhibition at 11210 g/ha [16] [%] | inhibition at 11210 g/ha [17] [%] | inhibition at 11210 g/ha [18] [%] | inhibition at 11210 g/ha [19] [%] | inhibition at 11210 g/ha [20] [%] | further results
1 | COC(=O)Cc1cc(-c2nn(C)c(C(F)(F)F)c2Cl)c(F)cc1Cl [Compound 110] |  |  |  |  |  |  |  |  |  |  |  |  |  |  |  |  |  |  |  |  | inhibition at 1120 g/ha ([1]; 1.12 kg/ha): 80%; inhibition at 1120 g/ha ([2]; 1.12 kg/ha): 20%; inhibition at 1120 g/ha ([3]; 1.12 kg/ha): 100%; inhibition at 1120 g/ha ([4]; 1.12 kg/ha): 0%; inhibition at 1120 g/ha ([5]; 1.12 kg/ha): 0%; inhibition at 1120 g/ha ([6]; 1.12 kg/ha): 0%; inhibition at 1120 g/ha ([7]; 1.12 kg/ha): 70%; inhibition at 1120 g/ha ([8]; 1.12 kg/ha): 0%; inhibition at 1120 g/ha ([9]; 1.12 kg/ha): 70%; inhibition at 1120 g/ha ([10]; 1.12 kg/ha): 50%; inhibition at 1120 g/ha ([11]; 1.12 kg/ha): 30%; inhibition at 1120 g/ha ([12]; 1.12 kg/ha): 70%; inhibition at 1120 g/ha ([13]; 1.12 kg/ha): 100%; inhibition at 1120 g/ha ([14]; 1.12 kg/ha): 40%; inhibition at 1120 g/ha ([15]; 1.12 kg/ha): 30%; inhibition at 1120 g/ha ([16]; 1.12 kg/ha): 20%; inhibition at 1120 g/ha ([17]; 1.12 kg/ha): 100%; inhibition at 1120 g/ha ([18]; 1.12 kg/ha): 20%; inhibition at 1120 g/ha ([19]; 1.12 kg/ha): 80%; inhibition at 1120 g/ha ([20]; 1.12 kg/ha): 60%
2 | Cn1nc(-c2cc(CC(=O)O)c(Cl)cc2F)c(Cl)c1C(F)(F)F [Compound 111] | 100 | 40 | 100 | 80 | 80 | 60 | 100 | 70 | 100 | 90 | 80 | 60 | 100 | 20 | 0 | 30 | 100 | 20 | 100 | 100 | 
3 | Cn1nc(-c2cc(CC(N)=O)c(Cl)cc2F)c(Cl)c1C(F)(F)F [Compound 112] | 100 | 100 | 100 | 90 | 100 | 80 | 90 | 20 | 100 | 40 | 40 | 60 | 100 | 30 | 30 | 40 | 70 | 0 | 80 | 60 | 
4 | Cn1nc(-c2cc(CC(=O)NCCCl)c(Cl)cc2F)c(Cl)c1C(F)(F)F [Compound 113] | 80 | 80 | 80 | 30 | 10 | 0 | 40 | 0 | 30 | 0 | 0 | 0 | 50 | 0 | 0 | 0 | 20 | 0 | 30 | 20 | 
5 | CNC(=O)Cc1cc(-c2nn(C)c(C(F)(F)F)c2Cl)c(F)cc1Cl [Compound 114] | 100 | 100 | 100 | 90 | 100 | 90 | 100 | 60 | 100 | 70 | 10 | 0 | 50 | 0 | 10 | 10 | 60 | 0 | 50 | 20 | 

From patent US5530126A, “Process for the preparation of substituted 6-(pyrazol-3yl)-1,4-benzoxazin-3-ones” (Monsanto Company, priority 1994, dated 1996)
